Measurements: patent publication US5733526A, “Hydrocarbon oil/fluorochemical preparations and methods of use” (priority 1995, dated 1998)
Values belong to the compound of their own block, whether it stands above or below them.

How the values were obtained:
[1] = Micelle formation in perfluorooctanes by FTIR (C-H stretching frequency); assay type: physicochemical; settings: in F-octanes
Method: A series of solutions of CF3 (CF2) 7 (CH2) 15 CH3 (F8H16; 0.02 mol/L to 0.2 mol/L) were prepared in F-octanes (purity≥98%) and the frequency of the carbon to hydrogen (--C--H) stretching mode (T=50° C.) measured using FTIR (Fourier Transform Infrared Spectroscopy). The formation of F8H16 micelles in a fluorocarbon continuous phase results in the transfer of the F8H16 hydrocarbon groups from a fluorocarbon rich environment in the molecular solution to a hydrocarbon rich environment at the interior of the micelles. The occurrence of this phase change can be measured as a change in the FTIR stretching frequency for the carbon-hydrogen bonds in the --CH2 groups of the FmHn molecules. […] The inflection point in the curve confirmed the existence of F8H16 micelles and was used to define the critical micelle concentration at about 0.05 mol/L.
A series of solutions of CF3 (CF2) 5 (CH2) 13 CH3 (F6H14; 0.02 mol/L to 0.2 mol/L) were prepared in F-octanes (purity≥98%) and the frequency of the carbon to hydrogen (--C--H) stretching mode (T=25° C.) measured using FTIR. The formation of F6H14 micelles was measured as a change in the FTIR stretching frequency for the carbon-hydrogen bonds in the --CH2 groups of the FmHn molecules. […] The inflection point in the curve confirmed the existence of F6H14 micelles and was used to define the critical micelle concentration at about 0.1 mol/L.

[2] = cited from earlier work; for Log Po/w: octanol/water
[3] = Titration of hydrocarbon oil into F-octanes until phase separation; solubilization by diblock dispersing agent; settings: for amount of hydrocarbon oil at which phase separation occurred: titrated into F-Octanes (8.82 g), before dispersing agent

SMILES: CCCCCCCCCCCCCCC(F)(F)C(F)(F)C(F)(F)C(F)(F)C(F)(F)C(F)(F)F [Example F6H14]
- critical micelle concentration ([1]; T=25° C.): about 0.1 mol/L

SMILES: CCCCCCCCCCCCCCCCC(F)(F)C(F)(F)C(F)(F)C(F)(F)C(F)(F)C(F)(F)C(F)(F)C(F)(F)F [Example F8H16, 1-(F-octyl)hexadecane]
- critical micelle concentration ([1]; T=50° C.): about 0.05 mol/L

SMILES: Clc1cccc(Cl)c1N=C1NCCN1 [^3 H-clonidine]
- Octanol/water partition coefficient Po/w [2]: 25.1

SMILES: CC(=O)[C@@]1(O)CC[C@H]2[C@@H]3C[C@H](C)C4=CC(=O)C=C[C@]4(C)[C@@]3(F)[C@@H](O)C[C@@]21C [^3 H-fluorometholone]
- Octanol/water partition coefficient Po/w [2]: 1.26 × 10^2

SMILES: COc1ccc(C(=O)CC(=O)c2ccc(C(C)(C)C)cc2)cc1 [^3 H-parsol 1789]
- Octanol/water partition coefficient Po/w [2]: 5.0 × 10^6
- Log Po/w [2]: 6.7

SMILES: CC(C)(C)NCC(O)COc1cccc2c1CCCC2=O (stereo not drawn) [^14 C-bunolol]
- Octanol/water partition coefficient Po/w [2]: 2.51 × 10^2

SMILES: CCCCC(CC)COC(=O)c1ccc(N(C)C)cc1 (stereo not drawn) [^14 C-padimate-o]
- Octanol/water partition coefficient Po/w [2]: 3.98 × 10^6

SMILES: FC(F)(F)C(Cl)Br (stereo not drawn) [halothane]
- Octanol/water partition coefficient Po/w [2]: 2.00 × 10^2
- Log Po/w [2]: 2.30

SMILES: COC(=O)c1ccccc1O [methyl salicylate]
- amount of hydrocarbon oil at which phase separation occurred [3]: 10 to 20 µL
- solubilization in F-Octanes ([3]; with F6H14 (17.3%, w/v)): 2.2 %, v/v

- amount of hydrocarbon oil at which phase separation occurred [3]: 1700 µL
- solubilization in F-Octanes ([3]; with F8H16 (7.82%, w/v)): 36.5 %, v/v
SMILES: CCCCCC [n-hexane]

SMILES: CCCCNc1ccc(C(=O)OCCN(C)C)cc1 [tetracaine]
- Octanol/water partition coefficient Po/w [2]: 79.4
